Peptide text beside a SMILES is read from it.
Columns and labels:
[1] = L-histidine concentration in blood after intravenous administration (Test Example 2); settings: male, Wistar, rat, in vivo, 15 min
Protocol: (§1) 7- to 9-week-old Wistar male rats were divided into the following 8 administration groups. The number of rats in each group was set at 4. […]
The therapeutic agent for cerebral ischemic injury obtained in Production Example 2 was diluted by a factor of 2, and the thus diluted solution was administered into the caudal vein of each rat at a rate of 60 mL/kg/hr for 10 minutes. […]
(§2) L-histidine was added to water for injection purpose, and acetic acid was further added thereto, so as to dissolve L-histidine in the solution. The obtained solution was adjusted to pH 6.0 with a sodium hydroxide aqueous solution. The obtained injection solution (L-histidine concentration: 10% (W/V)) was administered into the caudal vein of each rat at a rate of 60 mL/kg/hr for 10 minutes.
as §2, with “citric” for “acetic”, “minutes. […]” for “minutes.”
(§3) After administration of the agent, blood was collected from each rat at regular time intervals, and the concentration of L-histidine (monomer) in blood was then measured using a high speed amino acid analyzer L-8800A (manufactured by Hitachi High-Technologies Corporation). […] In addition, the body temperature, blood pressure, and cardiac rate of each test animal were measured during the period from before administration of the agent until after the administration of the agent, and at the same time, the appearance of each test animal was observed, so as to examine the presence or absence of side effects caused by administration of the agent. The L-histidine concentration in blood was measured 15 minutes after the administration of the agent, and the presence or absence of side effects caused by such administration of the agent was examined.

[2] = tested on: model of middle cerebral artery occlusion and subsequent reperfusion (cerebral ischemic injury); assay: Infarction rate and cerebral edema rate in model of middle cerebral artery occlusion and subsequent reperfusion (Test Example 5); assay type: in vivo, Wistar male rats; settings: Production Example 4 injection (0.64 mol/L), caudal vein 60 mL/kg/hr for 10 minutes, immediately after and 6 hours after reperfusion; 120 min occlusion; 24 hours after reperfusion; FIG. 2
From the text: Approximately 7-week-old Wistar male rats were used. The method of Koizumi et al. (Nou-socchu (Cerebral Apoplexy), Vol. 8, pp. 1-8, 1986) was applied to the rats under halothane anesthesia, so as to produce models of middle cerebral artery occlusion and subsequent reperfusion. Specifically, each rat was fixed under natural aspiration conditions under anesthesia with gas (initial anesthesia: performed in room air containing 3% halothane; continuous anesthesia: performed in room air containing 1% halothane), and the neck of the rat was then subjected to median incision. […]
On the day after the administration of the agent (24 hours after cerebral ischemia-reperfusion), a test animal was anesthetized with ether, and the brain was then excised. […] A slice of brain section was placed, with a surface to be measured down, into each well of a 12-well plate, which had been filled with a 2% TTC solution prepared by dissolving 2,3,5-triphenyltetrazolium chloride (TTC) in a phosphate buffered saline. […] Thus, the area of an infarct on the measurement surface of each brain section (the site in which brain tissue was considered to be necrosed) was measured, and the obtained value was then multiplied by the thickness of the brain section, so as to obtain the volume of an infarct in each brain section. […]

[3] = Solubility in water at 25° C.; assay type: physicochemical
[4] = tested on: Wistar male rats; assay: Identification of side effects after intravenous administration (Test Example 2); settings: rat, in vivo
Protocol: as §1
L-histidine hydrochloride was dissolved in water for injection purpose, and the obtained solution was then adjusted to pH 6.0 with a sodium hydroxide aqueous solution. The obtained injection solution (L-histidine concentration: 10% (W/V)) was administered into the caudal vein of each rat at a rate of 60 mL/kg/hr for 10 minutes.
as §2
as §2, with “citric” for “acetic”
β-alanyl-L-histidine was added to water for injection purpose, and the obtained solution was then adjusted to pH 7 with hydrochloric acid. The obtained injection solution (L-histidine concentration: 10% (W/V)) was administered into the caudal vein of each rat at a rate of 60 mL/kg/hr for 10 minutes. […]
as §3

**Q.** With `NCC(=O)N[C@@H](Cc1c[nH]cn1)C(=O)O` [glycyl-L-histidine] (H-Gly-His-OH) as the compound, how does the “L-histidine concentration in blood (mean value)” value [1] read?
**A.** 6.2 mM

**Q.** What about the “Cerebral edema rate compared with control group” value [2] of the same compound?
**A.** remarkably suppressed

**Q.** What about the “Infarction rate compared with control group” value [2] of the same compound?
**A.** remarkably suppressed

**Q.** And the solubility [3]?
**A.** ≥ 3500 mM

**Q.** What about the Side effects [4] of the same compound?
**A.** None
